Data taken from patent US8039514B2, “Sulfonamide compounds and use thereof” (Asahi Kasei Pharma Corporation, priority 2008, dated 2011).

Biological target: T1, human calcium-sensing receptor (CaSR) (Homo sapiens, UniProt P41180)
T1 construct: expressed in transfected cells
T1 sequence (P41180 20-1078): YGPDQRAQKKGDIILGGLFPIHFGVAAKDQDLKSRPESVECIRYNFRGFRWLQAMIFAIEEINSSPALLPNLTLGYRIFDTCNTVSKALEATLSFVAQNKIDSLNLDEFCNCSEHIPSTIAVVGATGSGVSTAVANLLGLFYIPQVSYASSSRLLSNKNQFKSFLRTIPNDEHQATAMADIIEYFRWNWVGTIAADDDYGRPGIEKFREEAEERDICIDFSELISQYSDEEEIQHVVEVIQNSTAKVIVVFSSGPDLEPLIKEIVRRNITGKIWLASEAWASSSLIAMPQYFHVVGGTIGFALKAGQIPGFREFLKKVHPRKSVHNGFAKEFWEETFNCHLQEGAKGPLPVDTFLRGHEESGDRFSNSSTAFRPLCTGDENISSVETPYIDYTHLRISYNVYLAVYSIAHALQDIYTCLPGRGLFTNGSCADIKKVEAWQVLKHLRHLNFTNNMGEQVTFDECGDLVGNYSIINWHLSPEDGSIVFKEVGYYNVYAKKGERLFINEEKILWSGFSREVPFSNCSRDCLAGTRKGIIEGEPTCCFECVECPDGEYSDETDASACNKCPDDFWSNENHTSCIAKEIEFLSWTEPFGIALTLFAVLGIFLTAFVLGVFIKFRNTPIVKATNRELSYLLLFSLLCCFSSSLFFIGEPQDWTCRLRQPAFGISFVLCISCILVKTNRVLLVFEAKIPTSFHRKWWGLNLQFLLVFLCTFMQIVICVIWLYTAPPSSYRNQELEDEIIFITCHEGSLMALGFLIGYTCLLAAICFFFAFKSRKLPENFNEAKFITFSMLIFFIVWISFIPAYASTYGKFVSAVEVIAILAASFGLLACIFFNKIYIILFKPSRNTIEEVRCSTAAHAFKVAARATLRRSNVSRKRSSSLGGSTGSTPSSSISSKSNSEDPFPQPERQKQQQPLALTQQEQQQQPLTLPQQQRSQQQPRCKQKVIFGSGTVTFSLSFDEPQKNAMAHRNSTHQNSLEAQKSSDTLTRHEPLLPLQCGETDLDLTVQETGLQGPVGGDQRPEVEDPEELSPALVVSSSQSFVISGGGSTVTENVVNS
Test: intracellular Ca assay, CaSR antagonist activity in HEK293/hCaSR cells
Format: cell-based
Conditions: Fura2-AM, inhibition of response to calcium chloride ligand solution, read-out: IC50 values according to the intracellular Ca assay (CaSR antagonist activity)
How it was run: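 HEK293/hCaSR cells were loaded with Fura2-AM and pre-incubated with compound for 160 s at 37° C in HEPES buffer (pH 7.4, 0.8 mM CaCl2), then challenged with calcium ligand solution. Read-out was the peak 340/380 nm fluorescence ratio; inhibition is relative to no-compound (0%) and no-calcium-ligand (100%) controls.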

SMILES	IC50 [nM]
CN(C[C@H](O)CNC(C)(C)CC1Cc2ccccc2C1)S(=O)(=O)c1cc(-c2ccc(F)c(C(=O)O)c2)cc(C(F)(F)F)c1 [Exp. 3-193, (R)-3′-(N-(3-(1-(2,3-dihydro-1H-inden-2-yl)-2-methylpropan-2-ylamino)-2-hydroxypropyl)-N-methylsulfamoyl)-4-fluoro-5′-(trifluoromethyl)biphenyl-3-carboxylic acid]	≤ 300
CN(C[C@H](O)CNC(C)(C)CC1Cc2ccccc2C1)S(=O)(=O)c1cccc(-c2ccc(C(=O)O)s2)c1 [Exp. 3-130, (R)-5-(3-(N-(3-(1-(2,3-dihydro-1H-inden-2-yl)-2-methylpropan-2-ylamino)-2-hydroxypropyl)-N-methylsulfamoyl)phenyl)thiophen-2-carboxylic acid]	≤ 300
CN(C[C@H](O)CNC(C)(C)Cc1ccc2ccccc2c1)S(=O)(=O)c1ccc(-c2ccc(C(=O)O)cc2)cc1 [Exp. 3-31, (R)-4′-(N-(2-hydroxy-3-(2-methyl-1-(naphthalen-2-yl)propan-2-ylamino)propyl)-N-methylsulfamoyl)biphenyl-4-carboxylic acid]	300 to 1000
CN(C[C@H](O)CNC(C)(C)CC1Cc2ccccc2C1)S(=O)(=O)c1ccc(-c2cccc(C(=O)O)c2)cc1C(F)(F)F [Exp. 3-124, (R)-4′-(N-(3-(1-(2,3-dihydro-1H-inden-2-yl)-2-methylpropan-2-ylamino)-2-hydroxypropyl)-N-methylsulfamoyl)-3′-(trifluoromethyl)biphenyl-3-carboxylic acid]	≤ 300
CN(C[C@H](O)CNC(C)(C)Cc1ccc2ccccc2c1)S(=O)(=O)c1cccc(-c2cc(C(=O)O)cc([N+](=O)[O-])c2)c1 [Exp. 3-18, (R)-3′-(N-(2-hydroxy-3-(2-methyl-1-(naphthalen-2-yl)propan-2-ylamino)propyl)-N-methylsulfamoyl)-5-nitrobiphenyl-3-carboxylic acid]	1000 to 3000
CN(C[C@H](O)CNC(C)(C)Cc1ccc2ccccc2c1)S(=O)(=O)c1ccc(-c2ccc(SCC(=O)O)cc2)cc1 [Exp. 3-47, (R)-2-(4′-(N-(2-hydroxy-3-(2-methyl-1-(naphthalen-2-yl)propan-2-ylamino)propyl)-N-methylsulfamoyl)biphenyl-4-ylthio)acetic acid]	300 to 1000
Cc1cc(-c2ccc(S(=O)(=O)N(C)C[C@H](O)CNC(C)(C)Cc3ccc4ccccc4c3)cc2)ccc1C(=O)O [Exp. 3-33, (R)-4′-(N-(2-hydroxy-3-(2-methyl-1-(naphthalen-2-yl)propan-2-ylamino)propyl)-N-methylsulfamoyl)-3-methylbiphenyl-4-carboxylic acid]	300 to 1000
Cc1ccc(CC(C)(C)NC[C@@H](O)CN(C)S(=O)(=O)c2cccc(-c3cc(F)cc(C(=O)O)c3)c2)cc1F [Exp. 3-71, (R)-5-fluoro-3′-(N-(3-(1-(3-fluoro-4-methylphenyl)-2-methylpropan-2-ylamino)-2-hydroxypropyl)-N-methylsulfamoyl)biphenyl-3-carboxylic acid]	1000 to 3000
Cc1ccc(-c2ccc(S(=O)(=O)N(C)C[C@H](O)CNC(C)(C)Cc3ccc4ccccc4c3)cc2)cc1C(=O)O [Exp. 3-32, (R)-4′-(N-(2-hydroxy-3-(2-methyl-1-(naphthalen-2-yl)propan-2-ylamino)propyl)-N-methylsulfamoyl)-4-methylbiphenyl-3-carboxylic acid]	1000 to 3000
CCc1cc(-c2ccc(CCC(=O)O)cc2)ccc1S(=O)(=O)N(C)C[C@H](O)CNC(C)(C)CCCc1ccccc1 [Exp. 3-116, (R)-3-(3′-ethyl-4′-(N-(2-hydroxy-3-(2-methyl-5-phenylpentan-2-ylamino)propyl)-N-methylsulfamoyl)biphenyl-4-yl)propionic acid]	≤ 300
CCc1cc(-c2ccc(CCC(=O)O)c(F)c2)ccc1S(=O)(=O)N(C)C[C@H](O)CNC(C)(C)CC1Cc2ccccc2C1 [Exp. 5-58, (R)-3-(4′-(N-(3-(1-(2,3-dihydro-1H-inden-2-yl)-2-methylpropan-2-ylamino)-2-hydroxypropyl)-N-methylsulfamoyl)-3′-ethyl-3-fluorobiphenyl-4-yl)propionic acid]	≤ 300
CN(C[C@H](O)CNC(C)(C)CCCc1ccsc1)S(=O)(=O)c1cc(-c2ccc(CCC(=O)O)cc2)cc(C(F)(F)F)c1 [Exp. 9-75, (R)-3-(3′-(N-(2-hydroxy-3-(2-methyl-5-(thiophen-3-yl)pentan-2-ylamino)propyl)-N-methylsulfamoyl)-5′-(trifluoromethyl)biphenyl-4-yl)propionic acid]	≤ 300
CN(C[C@H](O)CNC(C)(C)CC1Cc2ccccc2C1)S(=O)(=O)c1ccc(-c2ccc(C(=O)O)c(Cl)c2)cc1C(F)(F)F [Exp. 3-213, (R)-3-chloro-4′-(N-(3-(1-(2,3-dihydro-1H-inden-2-yl)-2-methylpropan-2-ylamino)-2-hydroxypropyl)-N-methylsulfamoyl)-3′-(trifluoromethyl)biphenyl-4-carboxylic acid]	≤ 300
CN(C[C@H](O)CNC(C)(C)Cc1ccc2ccccc2c1)S(=O)(=O)c1ccc(-c2cccc(C=CC(=O)O)c2)cc1 [Exp. 3-39, (R)-3-(4′-(N-(2-hydroxy-3-(2-methyl-1-(naphthalen 2-yl)propan-2-ylamino)propyl)-N-methylsulfamoyl)biphenyl-3-yl)acrylic acid]	300 to 1000
CN(C[C@H](O)CNC(C)(C)Cc1ccc2ccccc2c1)S(=O)(=O)c1ccc(-c2cc(F)c(C(=O)O)c(F)c2)cc1 [Exp. 3-48, (R)-3,5-difluoro-4′-(N-(2-hydroxy-3-(2-methyl-1-(naphthalen-2-yl)propan-2-ylamino)propyl)-N-methylsulfamoyl)biphenyl-4-carboxylic acid]	≤ 300
CN(C[C@H](O)CNC(C)(C)Cc1ccc2ccccc2c1)S(=O)(=O)c1cccc(-c2cc(F)c(C(=O)O)c(F)c2)c1 [Exp. 3-25, (R)-3,5-difluoro-3′-(N-(2-hydroxy-3-(2-methyl-1-(naphthalen-2-yl)propan-2-ylamino)propyl)-N-methylsulfamoyl)biphenyl-4-carboxylic acid]	300 to 1000
Cc1cc(S(=O)(=O)N(C)C[C@H](O)CNC(C)(C)CC2Cc3ccccc3C2)ccc1-c1cccc(CCC(=O)O)c1 [Exp. 3-178, (R)-3-(4′-(N-(3-(1-(2,3-dihydro-1H-inden-2-yl)-2-methylpropan-2-ylamino)-2-hydroxypropyl)-N-methylsulfamoyl) 2′-methylbiphenyl-3-yl)propionic acid]	≤ 300
CCc1cc(-c2cccc(CCC(=O)O)c2)ccc1S(=O)(=O)N(C)C[C@H](O)CNC(C)(C)CCCc1ccccc1 [Exp. 3-187, (R)-3-(3′-ethyl-4′-(N-(2-hydroxy-3-(2-methyl-5-phenylpentan-2-ylamino)propyl)-N-methylsulfamoyl)biphenyl-3-yl)propionic acid]	≤ 300
CN(C[C@H](O)CNC(C)(C)CCCc1ccccc1)S(=O)(=O)c1cc(NCC(=O)O)cc(C(F)(F)F)c1 [Exp. 9-180, (R)-2-(3-(N-(2-hydroxy-3-(2-methyl-5-phenylpentan-2-ylamino)propyl)-N-methylsulfamoyl)-5-(trifluoromethyl)phenylamino)acetic acid]	≤ 300
CN(C[C@H](O)CNC(C)(C)CCCc1ccccc1)S(=O)(=O)c1ccc(-c2cccc(CCC(=O)O)c2)c(Cl)c1 [Exp. 3-185, (R)-3-(2′-chloro-4′-(N-(2-hydroxy-3-(2-methyl-5-phenylpentan-2-ylamino)propyl)-N-methylsulfamoyl)biphenyl-3-yl)propionic acid]	≤ 300
CN(C[C@H](O)CNC(C)(C)CCCc1ccccc1)S(=O)(=O)c1cc(-c2cccc(CCC(=O)O)c2)cc(C(F)(F)F)c1 [Exp. 9-55, (R)-3-(3′-(N-(2-hydroxy-3-(2-methyl-5-phenylpentan-2-ylamino)propyl)-N-methylsulfamoyl)-5′-(trifluoromethyl)biphenyl-3-yl)propionic acid]	≤ 300
CN(C[C@H](O)CNC(C)(C)CCCc1ccccc1)S(=O)(=O)c1cc(F)cc(CCC(=O)O)c1Cl [Exp. 9-173, (R)-3-(2-chloro-5-fluoro-3-(N-(2-hydroxy-3-(2-methyl-5-phenylpentan-2-ylamino)propyl)-N-methylsulfamoyl)phenyl)propionic acid]	≤ 300
